{"source": "patent US20030191323A1", "about": "“Hypoglycemic agent” (Ajinomoto Co., Inc., priority 2000, published 2003)"}
{"tested_on": "Rat skeletal muscle cell strain L6 cells", "assay": "Effect of accelerating the glucose uptake in cultured skeletal muscle cells ([3H]-2-deoxyglucose uptake)", "format": "cell-based", "settings": "10 min, 10 μM compound, cultured overnight, 2DG uptake in L6 myotubes, 37° C. 10 minutes, compared with the control group", "method": "Effect of accelerating the glucose uptake in cultured skeletal muscle cells: Method: Rat skeletal muscle cell strain “L6 cells” in a confluent state was cultured in DME medium containing 2% of fetal calf serum for one week to differentiate into myotubes. The medium was replaced with the DME medium containing a compound synthesized in each of the above Reference Examples. After culturing overnight followed by the thorough washing with HEPES buffer solution, an HEPES buffer solution containing 37 kBq/ml of 10 μM [3H]-2-deoxyglucose (2DG) was added thereto. After the culture at 37° C. for 10 minutes, the radioactivity of 2DG transmigrated into the cells was determined. The effect (%) of each compound on 2DG uptake was determined as compared with that in the control group.", "units": {"activity at 10 µM": "%"}}
{"smiles": "CCCCCC(=O)NS(=O)(=O)c1ccccc1NC(=O)c1cccc(OCc2ccc([N+](=O)[O-])cc2)c1", "note": "[compound 26, N-[2-[3-(4-Nitrobenzyloxy)benzamido]benzenesulfonyl]hexanamide]", "activity at 10 µM": 134}
{"smiles": "CCCCCC(=O)NS(=O)(=O)c1ccccc1NC(=O)c1cccc(OCc2ccc(OC)cc2)c1", "note": "[compound 30, N-[2-[3-(4-Methoxybenzyloxy)benzamido]benzenesulfonyl]hexanamide]", "activity at 10 µM": 131}
{"smiles": "CCCCCC(=O)NS(=O)(=O)c1ccccc1NC(=O)c1cccc(OCC2CCCCC2)c1", "note": "[compound 34, N-[2-(3-cyclohexylmethoxybenzamido)benzenesulfonyl]hexanamide]", "activity at 10 µM": 145}
{"smiles": "CCCCCC(=O)NS(=O)(=O)c1ccccc1NC(=O)c1cccc(OCc2ccc(C(F)(F)F)cc2)c1", "note": "[compound 41, N-[2-[3-(4-Trifluoromethylbenzyloxy)benzamido]benzenesulfonyl]hexanamide]", "activity at 10 µM": 230}
{"smiles": "CC(C)(C)C(=O)NS(=O)(=O)c1ccccc1NC(=O)c1ccc(C#Cc2ccccc2)cc1", "note": "[compound 51, N-[2-(4-Phenylethynylbenzamido)benzenesulfonyl]pivalamide]", "activity at 10 µM": 225}
{"smiles": "CC/C=C/CC(=O)NS(=O)(=O)c1ccccc1NC(=O)c1ccc(C#Cc2ccccc2)cc1", "note": "[compound 54, Trans-N-[2-(4-phenylethynylbenzamido)benzenesulfonyl]-3-hexenamide]", "activity at 10 µM": 118}
{"tested_on": "not given", "assay": "not given", "settings": "not given", "units": {"melting point": "°C"}}
{"smiles": "O=C(NS(=O)(=O)c1ccccc1NC(=O)c1cccc(OCc2ccccc2)c1)Oc1ccccc1", "melting point": "163 to 164"}
{"smiles": "CCCCNC(=O)NS(=O)(=O)c1ccccc1NC(=O)c1cccc(OCc2ccccc2)c1", "melting point": "177 to 178"}
{"smiles": "CCCCCCCCNC(=O)NS(=O)(=O)c1ccccc1NC(=O)c1cccc(OCc2ccccc2)c1", "melting point": "124 to 125"}
{"smiles": "O=C(Nc1ccccc1S(=O)(=O)NC(=O)c1cccc(OCc2ccccc2)c1)c1cccc(OCc2ccccc2)c1", "note": "[compound 2, N-[2-(3-Benzyloxybenzamido)benzenesulfonyl]-3-benzyloxybenzamide]", "melting point": "172 to 173"}
{"smiles": "O=C(Nc1ccccc1S(=O)(=O)NC(=O)c1ccccc1)c1cccc(OCc2ccccc2)c1", "note": "[compound 3, N-[2-(3-Benzyloxybenzamido)benzenesulfonyl]-benzamide]", "melting point": "201 to 202"}
{"smiles": "CC(=O)NS(=O)(=O)c1ccccc1NC(=O)c1cccc(OCc2ccccc2)c1", "note": "[compound 4, N-[2-(3-Benzyloxybenzamido)benzenesulfonyl]acetamide]", "melting point": "195 to 196"}
{"smiles": "O=C(Nc1ccccc1S(=O)(=O)NC(=O)c1ccc(C(F)(F)F)cc1)c1cccc(OCc2ccccc2)c1", "note": "[compound 5, N-[2-(3-Benzyloxybenzamido)benzenesulfonyl]-4-trifluoromethylbenzamide]", "melting point": "220 to 221"}
{"smiles": "O=C(Nc1ccccc1S(=O)(=O)NC(=O)c1ccc([N+](=O)[O-])cc1)c1cccc(OCc2ccccc2)c1", "note": "[compound 6, N-[2-(3-benzyloxybenzamido)benzenesulfonyl]-4-nitrobenzamide]", "melting point": "233 to 234"}
{"smiles": "COc1ccc(C(=O)NS(=O)(=O)c2ccccc2NC(=O)c2cccc(OCc3ccccc3)c2)cc1", "note": "[compound 7, N-[2-(3-benzyloxybenzamido)benzenesulfonyl]-4-methoxybenzamide]", "melting point": "189 to 190"}
{"smiles": "CCCCCC(=O)NS(=O)(=O)c1ccccc1NC(=O)c1cccc(OCc2ccccc2)c1", "note": "[compound 9, N-[2-(3-Benzyloxybenzamido)benzenesulfonyl]-n-hexanamide]", "melting point": "133 to 134"}
{"smiles": "CCCCCCCCCC(=O)NS(=O)(=O)c1ccccc1NC(=O)c1cccc(OCc2ccccc2)c1", "note": "[compound 10, N-[2-(3-Benzyloxybenzamido)benzenesulfonyl]-decanamide]", "melting point": "85 to 86"}
{"smiles": "CC(C)(C)C(=O)NS(=O)(=O)c1ccccc1NC(=O)c1cccc(OCc2ccc(C(C)(C)C)cc2)c1", "note": "[compound 14, N-[2-[3-(4-t-butylbenzyloxy)benzamido]benzenesulfonyl]pivalamide]", "melting point": "193 to 194"}
{"smiles": "CC(C)(C)c1ccc(COc2cccc(C(=O)Nc3ccccc3S(=O)(=O)NC(=O)/C=C/c3ccccc3)c2)cc1", "note": "[compound 15, N-[2-[3-(4-t-butylbenzyloxy)benzamido]benzenesulfonyl]cinnamamide]", "melting point": "110 to 111"}
{"smiles": "CCCCCCCCCC(=O)NS(=O)(=O)c1ccccc1NC(=O)c1ccc([N+](=O)[O-])c(OCc2ccccc2)c1", "note": "[compound 19, N-[2-(3-benzyloxy-4-nitrobenzamido)benzenesulfonyl]decanamide]", "melting point": "129 to 130"}
{"smiles": "CCCCCC(=O)NS(=O)(=O)c1ccccc1NC(=O)c1cccc(OCc2ccc(Cl)cc2)c1", "note": "[compound 22, N-[2-[3-(4-Chlorobenzyloxy)benzamido]benzenesulfonyl]hexanamide]", "melting point": "148 to 149"}
{"smiles": "CCCCCCCCCC(=O)NS(=O)(=O)c1ccccc1NC(=O)c1cccc(OCc2ccc(Cl)cc2)c1", "note": "[compound 23, N-[2-[3-(4-Chlorobenzyloxy)benzamido]benzenesulfonyl]decanamide]", "melting point": "159 to 161"}
{"smiles": "CC(=O)NS(=O)(=O)c1ccccc1NC(=O)c1cccc(OCc2ccc([N+](=O)[O-])cc2)c1", "note": "[compound 25, N-[2-[3-(4-Nitrobenzyloxy)benzamido]benzenesulfonyl]acetamide]", "melting point": "189 to 192"}
{"smiles": "CCCCCC(=O)NS(=O)(=O)c1ccccc1NC(=O)c1cccc(OCc2ccc([N+](=O)[O-])cc2)c1", "note": "[compound 26, N-[2-[3-(4-Nitrobenzyloxy)benzamido]benzenesulfonyl]hexanamide]", "melting point": "138 to 141"}
{"smiles": "CCCCCCCCCC(=O)NS(=O)(=O)c1ccccc1NC(=O)c1cccc(OCc2ccc([N+](=O)[O-])cc2)c1", "note": "[compound 27, N-[2-[3-(4-nitrobenzyloxy)benzamido]benzenesulfonyl]decanamide]", "melting point": "145 to 148"}
{"smiles": "COc1ccc(COc2cccc(C(=O)Nc3ccccc3S(=O)(=O)NC(C)=O)c2)cc1", "note": "[compound 29, N-[2-[3-(4-Methoxybenzyloxy)benzamido]benzenesulfonyl]acetamide]", "melting point": "114 to 117"}
{"smiles": "CCCCCC(=O)NS(=O)(=O)c1ccccc1NC(=O)c1cccc(OCc2ccc(OC)cc2)c1", "note": "[compound 30, N-[2-[3-(4-Methoxybenzyloxy)benzamido]benzenesulfonyl]hexanamide]", "melting point": "154 to 157"}
{"smiles": "CCCCCCCCCC(=O)NS(=O)(=O)c1ccccc1NC(=O)c1cccc(OCc2ccc(OC)cc2)c1", "note": "[compound 31, N-[2-[3-(4-Methoxybenzyloxy)benzamido]benzenesulfonyl]decanamide]", "melting point": "148 to 149"}
{"smiles": "CC(=O)NS(=O)(=O)c1ccccc1NC(=O)c1cccc(OCC2CCCCC2)c1", "note": "[compound 33, N-[2-(3-Cyclohexylmethoxybenzamido)benzenesulfonyl]acetamide]", "melting point": "164 to 167"}
{"smiles": "CCCCCC(=O)NS(=O)(=O)c1ccccc1NC(=O)c1cccc(OCC2CCCCC2)c1", "note": "[compound 34, N-[2-(3-cyclohexylmethoxybenzamido)benzenesulfonyl]hexanamide]", "melting point": "112 to 113"}
{"smiles": "CCCCCCCCCC(=O)NS(=O)(=O)c1ccccc1NC(=O)c1cccc(OCC2CCCCC2)c1", "note": "[compound 35, N-[2-(3-Cyclohexylmethoxybenzamido)benzenesulfonyl]decanamide]", "melting point": "124 to 127"}
{"smiles": "CC(=O)NS(=O)(=O)c1ccccc1NC(=O)c1cccc(OCc2ccc(C(C)(C)C)cc2)c1", "note": "[compound 36, N-[2-[3-(4-t-Butylbenzyloxy)benzamido]benzenesulfonyl]acetamide]", "melting point": "190 to 191"}
{"smiles": "CCCCCC(=O)NS(=O)(=O)c1ccccc1NC(=O)c1cccc(OCc2ccc(C(C)(C)C)cc2)c1", "note": "[compound 37, N-[2-[3-(4-t-Butylbenzyloxy)benzamido]benzenesulfonyl]hexanamide]", "melting point": "163 to 164"}
{"smiles": "CCCCCCCCCC(=O)NS(=O)(=O)c1ccccc1NC(=O)c1cccc(OCc2ccc(C(C)(C)C)cc2)c1", "note": "[compound 38, N-[2-[3-(4-t-Butylbenzyloxy)benzamido]benzenesulfonyl]decanamide]", "melting point": "132 to 133"}
{"smiles": "CCCCCC(=O)NS(=O)(=O)c1ccccc1NC(=O)c1cccc(OCc2ccc(C(F)(F)F)cc2)c1", "note": "[compound 41, N-[2-[3-(4-Trifluoromethylbenzyloxy)benzamido]benzenesulfonyl]hexanamide]", "melting point": "142 to 143"}
{"smiles": "CCCCCCCCCC(=O)NS(=O)(=O)c1ccccc1NC(=O)c1cccc(OCc2ccc(C(F)(F)F)cc2)c1", "note": "[compound 42, N-[2-[3-(4-Trifluoromethylbenzyloxy)benzamido]benzenesulfonyl]decanamide]", "melting point": 164}
{"smiles": "CCCCCCCOc1cccc(C(=O)Nc2ccccc2S(=O)(=O)NC(C)=O)c1", "note": "[compound 44, N-[2-(3-Heptyloxybenzamido)benzenesulfonyl]acetamide]", "melting point": "194 to 195"}
{"smiles": "CCCCCCCOc1cccc(C(=O)Nc2ccccc2S(=O)(=O)NC(=O)CCCCC)c1", "note": "[compound 45, N-[2-(3-Heptyloxybenzamido)benzenesulfonyl]hexanamide]", "melting point": "200 to 201"}
{"smiles": "CC(=O)NS(=O)(=O)c1ccccc1NC(=O)c1ccc(C#Cc2ccccc2)cc1", "note": "[compound 48, N-[2-(4-Phenylethynylbenzamido)benzenesulfonyl]acetamide]", "melting point": "214 to 215"}
{"smiles": "CCCCCCCCCC(=O)NS(=O)(=O)c1ccccc1NC(=O)c1ccc(C#Cc2ccccc2)cc1", "note": "[compound 50, N-[2-(4-Phenylethynylbenzamido)benzenesulfonyl]decanamide]", "melting point": "155 to 156"}
{"smiles": "CC(C)(C)C(=O)NS(=O)(=O)c1ccccc1NC(=O)c1ccc(C#Cc2ccccc2)cc1", "note": "[compound 51, N-[2-(4-Phenylethynylbenzamido)benzenesulfonyl]pivalamide]", "melting point": "236 to 237"}
{"smiles": "CC(C)=CC(=O)NS(=O)(=O)c1ccccc1NC(=O)c1ccc(C#Cc2ccccc2)cc1", "note": "[compound 52, 3-Methyl-N-[2-(4-phenylethynylbenzamido)benzenesulfonyl]-2-butenamide]", "melting point": "187 to 188"}
{"smiles": "C/C=C/C=C/C(=O)NS(=O)(=O)c1ccccc1NC(=O)c1ccc(C#Cc2ccccc2)cc1", "note": "[compound 53, Trans-N-[2-(4-phenylethynylbenzamido)benzenesulfonyl]-2,4-hexadienamide]", "melting point": "208 to 209"}
